In US20060211736A1, “GLUTARIMIDE-CONTAINING POLYKETIDE ANALOGS AND METHODS THEREOF” (Wisconsin Alumni Research Foundation, priority 2005, published 2006):
Each block holds one molecule with its values, some of them ahead of it.

Legend:
[1] = stability in organic solvents and under fermentation condition (HPLC, 1H NMR); type: physicochemical; conditions: in CHCl3, DMSO, MeOH, and MeOH-H2O at 25° C. for 90 days
Protocol: (§1) To verify the identity of the shunt metabolites, purified 4 (30 mg) was incubated in H2O-DMSO (9:1), and the resultant products were isolated and subjected to spectroscopic analysis.
Seed medium (50 mL) in a 250-mL flask was inoculated with spores of S. platensis and incubated on a rotary shaker at 250 rpm and 28° C. for 30 hr. The resultant seed culture (25 mL) was then inoculated into production medium (600 mL containing 70 g/L XAD-16 resins) in a 2-L flask, which was incubated on a rotary shaker at 250 rpm and 28° C. for 2 days. The combined production culture broth (7 L) was filtered through gauze sponges to capture the XAD-16 resins. The resins were washed with Milli-Q H2O, dried at room temperature, and eluted with anhydrous ethanol. The ethanol extract was evaporated under reduced pressure to yield an oily residue. The residue was first analyzed by HPLC-UV (PDA) and LC-ESI-MS to confirm the presence of the various congeners of 110. Although they can survive during fermentation and be stabilized in H2O upon absorption to resins, 110 and its congeners 112-119 undergo rapid rearrangement in aqueous solution. They are stable in most organic solvents such as CHCl3, EtOAc, hexane, and absolute ethanol at room temperature. Consequently, isolation of these metabolites was performed mainly by repeated silica gel flash column chromatography using two different solvent systems (CHCl3/MeOH and EtOAc/hexane).

[2] = system: HCT-116 cells; conditions: same assay conditions for both substances; cited from earlier work
[3] = stability in water / H2O-mediated rearrangement (HPLC); type: physicochemical
Protocol: as §1
Large-scale Conversion of 4 to 1, 2, 3 and 5 in H2O. The purity of compound 4 was first analyzed by HPLC showing a single peak (purity >98%) and then confirmed by ^1H NMR spectrum (in CDCl3) showing no detectable contaminant. A solution of 4 (30 mg in 6 ml of DMSO) was then added to 55 ml Milli-Q H2O, and the resultant mixture was incubated at 37° C. for 2 hours. The reaction mixture was evaporated under high vacuo. The residue was subjected to silica gel flash column chromatography eluted with CHCl3-MeOH (from 10:0 to 9.4:0.6) to yield pure 1 (8 mg), 3 (9 mg), and a mixture of 2 and 5. The latter was further resolved by semi-preparative to afford pure 2 (6 mg) and 5 (4 mg). The ESI−MS, ^1H NMR and optical rotation data of compounds 1, 2, 3, and 5 were identical to those obtained from the corresponding compounds isolated from fermentation (the ^13C NMR spectrum of 1 was also measured, which is identical to that of 1 obtained from fermentation).
H2O-mediated rearrangement of 112-114 and 117-119. […]
Regioselective 1,4-reduction to access the reduced NK30424 scaffold. […] The reactions for 203, 209, and 210 were complete in 2, 8, and 12 hrs, respectively, as monitored by HPLC (yields>80%). […]

[4] = system: K-ras transformed NIH/3T3 mouse fibroblasts; conditions: 0.4 ∝g/ml; cited from earlier work
[5] = system: experimental tumors; conditions: efficacy comparable to or better than MTM C; cited from earlier work

SMILES: CO[C@@H](/C=C/CC/C=C/C(=O)O)[C@@H](O)[C@H](C)/C=C(\C)[C@@H](O)[C@H](C)C(=O)CCCC1CC(=O)NC(=O)C1 [Compound 5, 13-epi-Dorrigocin A]
change of solutions upon HPLC and 1H NMR analyses [1]: no detectable change

SMILES: CO[C@H]1/C=C/CC/C=C/C(=O)O[C@H]([C@H](C)C(=O)CCCC2CC(=O)NC(=O)C2)/C(C)=C\[C@@H](C)[C@@H]1O [Compound 1, Migrastatin]
change of solutions upon HPLC and 1H NMR analyses [1]: no detectable change

SMILES: CO[C@@]12[C@H](COC(N)=O)C3=C(C(=O)C(C)=C(N)C3=O)N1C[C@@H]1N[C@@H]12 [MTM C]
IC50 value with HCT-116 cells [2]: 0.8 µg/mL

stability in aqueous solution (H2O-mediated rearrangement) [3]: rapid conversion
SMILES: CO[C@H]1/C=C/CC/C=C/C(=O)O[C@@H](/C(C)=C/[C@H](C)C(=O)CCCC2CC(=O)NC(=O)C2)[C@@H](C)[C@@H]1O [Compound 4, iso-Migrastatin]

SMILES: CO[C@@H](/C=C/CC/C=C/C(=O)O)[C@@H](O)[C@H](C)/C=C(\C)[C@H](O)[C@H](C)C(=O)CCCC1CC(=O)NC(=O)C1 [Compound 2, Dorrigocin A]
change of solutions upon HPLC and 1H NMR analyses [1]: no detectable change
reduction of the number of foci [4]: 74%

SMILES: C/C(=C\[C@H](C)C(=O)C[C@H](O)CC1CC(=O)NC(=O)C1)[C@@H]1OC(=O)/C=C/CC/C=C/C=C\[C@@H]1C [Compound 104, lactimidomycin]
IC50 value with HCT-116 cells [2]: 0.0014 µg/mL
survival time of tumor-bearing mice [5]: prolonged the survival time

SMILES: CO[C@@H](/C=C/CC/C=C/C(=O)O)[C@@H](O)[C@H](C)[C@@H](O)/C(C)=C/[C@H](C)C(=O)CCCC1CC(=O)NC(=O)C1 [Compound 3, Dorrigocin B]
change of solutions upon HPLC and 1H NMR analyses [1]: no detectable change
